# Results from patent US10617750B2, “Partner of SLD five 1 (PSF1)-derived peptide” (Vasculead Inc., priority 2012, dated 2020).
# No end group written: not given here.
# What was measured:
# [1] = tested on: peptide specific CTL through HLA-A02; assay: Mouse CTL induction assay (IFN-γ ELISPOT after peptide immunization); assay type: in vivo; details: CB6F1-Tg (HLA-A0201/H2-Kb) mice, 50 μg peptide/mice, spleen cells two weeks after injection; IFN-γ spots minus negative control peptide
# Procedure: The mouse CTL inducing activity with peptides was determined by using mouse immune models. Regarding mice, CB6F1-Tg (HLA-A0201/H2-Kb)A0201 was obtained from Taconic Biosciences, Inc. At most five types of peptide solutions dissolved in DMSO were mixed to produce a PBS solution, and the PBS solution was mixed together with the same amount of MONTANIDE ISA 51VG (SEPPIC), thereby producing an emulsion antigen solution. Then, 50 μL of the antigen solution was used for hypodermic injection into each of two sites at both sides of the belly of the mice (50 μg peptide/mice, N=3-4). Two weeks after the injection, spleen was removed, and spleen cells from which erythrocyte had been eliminated with a solution (BD Pharm Lyse™, Becton, Dickinson and Company, La Jolla, Calif.) were collected as responder cells for an ELISPOT assay.
# The ELISPOT assay was conducted by detecting IFN-γ produced from responder cells. The procedure thereof conformed to an accompanying document of an assay kit, Mouse IFN-γ ELISpot^PLUS (MABTECH, Cincinnati, Ohio). Preincubation for the IFN-γ production was performed by adding cells to a 96-well plate included in the assay kit. Stimulator cells were inoculated in a duplicate well or a single well of 5×10^4 cell/100 μL/well, and then responder cells were added to 2×10^6 cell/100 μL/well. After one-night coculture, the cells were removed and the well was washed, and then primary antibodies (biotin-antimouse IFN-γ antibodies) included in the assay kit were added. After reaction for two hours at room temperature, the well was washed, supplemented with secondary antibodies (streptavidin-ALP), and subjected to reaction for one hour at room temperature. After having been sufficiently washed, the cells were supplemented with a substrate solution and left for one minute at room temperature. To terminate coloring reaction, the plate was sufficiently washed with running water and was air-dried.
# The number of blue spots observed at the well bottom was measured with an ImmunoSpot® S5 Verse Analyzer (Cellular Technology Limited, Shaker Heights, Ohio). Measurement values of unclear spots because of a wide range of coloring were not used. An average value was obtained for the duplicate well, and the difference from the negative control was calculated in order to obtain the number of spots specific to peptides. The average value and the SD value were calculated by using values for individual mice, and the case having a positive number of differences between the average value and the SD value was determined as positive.
# peptide specific CTL = assay: CTL inducibility of peptides (summary statement); assay type: cell-based
# Text: According to the embodiments of the present invention, the phrase “having CTL inducibility” means that the peptide is recognized by a specific CTL. In other word, the peptide has an ability to induce a peptide specific CTL. […] The ability to induce the peptide specific CTL can be examined by, for example, determining whether or not a cytokine such as interferon-γ (IFN-γ) is produced by peptide-stimulated peripheral blood mononuclear cells (PBMCs) in response to antigen presenting cells which are pulsed with said peptide using the ELISA technique or the like. In addition, cytotoxic activity of the induced CTL can be determined by the ^51Cr-release assay and the like. The peptide of the present invention is preferred to have 8 to 14, more preferably 8 to 11 and especially, 9 or 10 amino acid residues in view of good recognition by CTL.
# These all three peptides are located in the region from 79 to 100 of PSF1 (FIG. 3). […] (SEQ ID NO.:6) or […] (SEQ ID NO.: 8) or […]
# [2] = tested on: peptide specific human CTL; assay: Human CTL induction assay (IFN-γ ELISPOT); assay type: cell-based; details: for Positive donor number: HLA-A0201 healthy volunteers, positive = difference of 50 or more peptide specific spots; for Donor positive percentage: positive donors / donors examined
# Procedure: A human CTL induction assay was conducted under conditions with reference to a known report (Harano et al. Int. J. Cancer 2008; 123:2616-2625).
# Heparinized peripheral blood of healthy volunteers having HLA-A0201 was subjected to centrifugation at 3000 rpm for 20 minutes, thereby removing plasma. Cell pellets were supplemented with HBSS(−) (Wako Pure Chemical Industries, Ltd, Richmond, Va.) to which 5 mM of HEPES (SIGMA, Carlsbad, Calif.) had been added, and were suspended, thereby overlaying the suspension over a Ficoll-paque PREMIUM (GE Healthcare, Ltd., Pittsburgh, Pa.). Then, 400 g of the resulting substance was subjected to centrifugation for 40 minutes, and peripheral blood […] cells (PBMCs) separated as an intermediate layer were collected.
# PBMCs were supplemented with CD14 microbeads (Miltenyi Biotec K.K.), and caused to react at 4° C. for 15 minutes. The cells were passed through LS columns (Miltenyi Biotec K.K., Tokyo, Japan), and CD14-positive cells were obtained by using QuadroMACS™ Separator (Miltenyi Biotec K.K., Tokyo, Japan). The rest of the cells were collected and washed, and then supplemented with CD8 microbeads (Miltenyi Biotec K.K., Tokyo, Japan) and allowed to react at 4° C. for 15 minutes. Thereafter, a similar process is performed, thereby obtaining CD8-positive cells. The CD14-positive cells were subjected to differentiation induction to monocyte-derived dendritic cells (Mo-DCs), and CD8-positive cells were temporarily frozen for storage.
# Since CD8-positive cells were subjected to antigen stimulation twice, peptide-presenting cells were produced twice accordingly. CD14-positive cells were disseminated in two RepCell plates (CellSeed Inc., Tokyo, Japan), and incubated in a 5% CO2 incubator at 37° C. with a culture solution in which 100 ng/ml GM-CSF (R&D Systems, Minneapolis, Minn.) and 10 ng/ml IL-4 (R&D Systems) were added to an AIM-V (Invitrogen Corporation, Carlsbad, Calif.) culture medium including antibiotic and serum.
# First production of peptide-presenting cells was started 5-7 days after the start of incubation. To one of the plates, 0.1 KE/ml OK-432 (Chugai Pharmaceutical Co., Ltd., Tokyo, Japan) was added, and on the next day, cells were collected and inoculated in a 96-well U-bottom plate. Then, 20 μg/ml of assay peptide of one type was added to each half area (48 wells) of the plate, and incubated for one day at 37° C. in a 5% CO2 incubator, thereby producing peptide-presenting cells. Second production was performed similarly on the other plate 12-14 days after the start of incubation.
# Peptide-presenting cells in a 96-well plate were irradiated with X rays (30 Gy), and the frozen stored CD8-positive cells were added to all the wells, thereby performing first antigen stimulation. As a culture solution, a solution in which 10 ng/ml IL-7 (R&D Systems, Minneapolis, Minn.) was added to an AIM-V culture medium including antibiotic and serum was used. After incubation for seven days, cells included in supernatant were collected and cocultured with peptide-presenting cells (after X-ray irradiation) obtained by the second production, thereby performing second antigen stimulation in the 96-well plate. At this time, 20 U/mL of IL-2 (Shionogi & Co., Ltd., Florham Park, N.J.) was added to the culture solution. After further incubation for seven days, cells in supernatant including CTL were collected and washed with an AIM-V culture medium including antibiotic and serum to have a concentration of approximately 2×10^5 cells/ml per well, thereby obtaining responder cells for an ELISPOT assay.
# T2 cells of stimulator cells for use in an ELISPOT assay were produced by incubating the cells for one night in an AIM-V culture medium supplemented with an assay peptide (20 μg/mL). As stimulator cells of a negative control, only T2 cells were used (without peptides). […]
# T2 cells = assay: Human CTL cytotoxic assay; assay type: cell-based
# Procedure: Specifically, assay conditions were set with reference to a method described in a known report (New CFSE-based assay to determine susceptibility to lysis by cytotoxic T cells of leukemic precursor cells within a heterogeneous target cell population. Jedema I. et al. Blood 2004; 103:2677-2682).
# As target cells for use in the cytotoxic assay, 1 μM of CellTracker™ Green CMFDA (5-chloromethylfluorescein diacetate) (Invitrogen Corp., Carlsbad, Calif.) was added to T2 cells, and these cells were allowed to react with each other at 37° C. for 15 minutes. The T2 cells were labeled with CMFDA, which is a fluorescent marker, washed with AIM-V, supplemented with assay peptides (20 μg/ml), and incubated for one night. As target cells of a negative control, T2 cells only labeled with a fluorescent marker were used (without peptide addition). The cells were washed with an AIM-V culture medium including antibiotic and serum to have a concentration of 5×10^4 cells/ml.
# The cells were prepared to have concentrations of 50, 15, 5×10^4 cells/ml after washing with AIM-V. The preparation was performed with an AIM-V culture medium including antibiotic and serum.
# Target cells (T) supplemented with peptides used in CTL induction or target cells (T) of a negative control supplemented with no peptides were mixed with effector cells (E) at a cell ratio (E/T ratio) of 10:1, 3:1, and 1:1, and cocultured for one night. Immediately before measurement with a MACS Quant (Miltenyi Biotec, San Diego, Calif.) or a FACS Aria, 0.1 μg/ml of DAPI was added in order to distinguish living cells from dead cells by means of staining. In an analysis, the proportion of DAPI-negative cells (living cells) in target cells labeled with CMFDA was obtained, and the survival rate of target cells was calculated using incubation conditions (only for target cells) where coculture with effector cells was not performed as 100%.
Sequence,Specific spot number (Ave ± SD) [1],Positive donor number [2],Donor positive percentage [2] [%],other results
"AYLYDRLLRI [PSF1-derived peptide, initiating amino acid no; 78]",23 ± 21,,,CTL inducibility (peptide specific CTL): high
"LPAFNEDGLRQV [PSF1-derived peptide, initiating amino acid number 21]",3 ± 8,0,0,
"EMKALYEQN [PSF1-derived peptide, initiating amino acid number 35]",6 ± 8,1,13,
"SLLRNRRCTV [PSF1-derived peptide, initiating amino acid no; 68]",1 ± 2,,,
"QVLEEMKAL [PSF1-derived peptide, initiating amino acid no; 31]",7 ± 7,,,
"ALRWEYGSVL [PSF1-derived peptide, initiating amino acid no; 89]",,2,100,"Survival rate of target cells pulsed with peptide vs not pulsed (T2 cells; CTL line specific to the peptide cocultured with T2 cells at E:T 1:1, 3:1, 10:1, FIG. 2): decreased to a degree greater than target cells not pulsed with peptides; CTL inducibility (peptide specific CTL): high"
ALRWEYGSV,,,,cytotoxic activity (T2 cells): particularly high
"SLYIEVRCL [PSF1-derived peptide, initiating amino acid no; 145]",43 ± 24,2,100,
LIRNRRCTV,7 ± 9,,,
"RALRWEYGSV [PSF1-derived peptide, initiating amino acid no; 88]",,3,60,CTL inducibility (peptide specific CTL): high
"GDEGLDITQDMKP [PSF1-derived peptide, initiating amino acid number 130]",1 ± 2,0,0,
"SLATYMRSL [PSF1-derived peptide, initiating amino acid no; 120]",70 ± 79,,,
"ALYEQNQDSV [PSF1-derived peptide, initiating amino acid no; 38]",30 ± 15,,,
"VLPNALRFHM [PSF1-derived peptide, initiating amino acid no; 97]",127 ± 41,,,
"YLYDRLLRIR [PSF1-derived peptide, initiating amino acid no; 79]",165 ± 17,,,CTL inducibility (peptide specific CTL): high
YLYDRLLRI,,,,cytotoxic activity (T2 cells): particularly high
"CLKDYGEFEV [PSF1-derived peptide, initiating amino acid no; 152]",53 ± 28,,,
"KAMELIREL [PSF1-derived peptide, initiating amino acid no]",22 ± 13,,,
RALRWEYGSVLPN,,,,cytotoxic activity (T2 cells): particularly high
"FLPRWKCEQL [PSF1-derived peptide, initiating amino acid no; 176]",31 ± 24,,,
